# Test results as given in the supplement of paper PMC10307832.
# What was measured:
# Assay in all cases: relative viability (nuclei count vs DMSO), 5 days (fraction); higher = more cells survive
# [1] = compound: CCn1c(-c2nonc2N)nc2cnc(Oc3cccc(NC(=O)c4ccc(OCCN5CCOCC5)cc4)c3)cc21 + Cc1cc(Nc2cc(N3CCN(C)CC3)nc(Sc3ccc(NC(=O)C4CC4)cc3)n2)n[nH]1 [Tozasertib] (partner 0.1 µM)
# Procedure, shortened: (§1)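 Values are medians from duplicate plates. Each reflects relative viability, defined as the nuclei count of treated wells over that of vehicle wells. Lung cancer cell lines in 1536-well plates were pin-tool dosed one day after seeding with one drug alone or with a fixed anchor-drug dose plus five library-drug doses (not always all listed) in √10 steps, then fixed, stained and imaged at 4× after 5 days.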
# [2] = compound: CCC1=CN=CN=C1N2CCN(CC2)CC3=NC4=C(N3)C=C(C=C4)C(F)(F)F + COc1cccc2cc(-c3nc([C@H]4CC[C@H](C(=O)O)CC4)n4ncnc(N)c34)[nH]c12 [OSI-027] (partner 0.5 µM)
# Procedure, shortened: as §1
# Mirin + Crizotinib = compound: N=C1NC(=O)/C(=C/c2ccc(O)cc2)S1 [Mirin] + C[C@@H](Oc1cc(-c2cnn(C3CCNCC3)c2)cnc1N)c1c(Cl)ccc(F)c1Cl [Crizotinib] (partner 1 µM)
# Procedure, shortened: as §1
# Mirin + Vorinostat = compound: N=C1NC(=O)/C(=C/c2ccc(O)cc2)S1 [Mirin] + O=C(CCCCCCC(=O)Nc1ccccc1)NO [Vorinostat] (partner 1 µM)
# Procedure, shortened: as §1
Cell Line,relative viability ([1]; first compound 0.04 µM),relative viability ([1]; first compound 0.1265 µM),relative viability ([1]; first compound 0.4 µM),relative viability ([1]; first compound 1.265 µM),relative viability ([1]; first compound 4 µM),relative viability ([2]; first compound 0.04 µM),relative viability ([2]; first compound 0.1265 µM),relative viability ([2]; first compound 0.4 µM),relative viability ([2]; first compound 4 µM),relative viability (Mirin + Crizotinib; first compound 0.25 µM),relative viability (Mirin + Crizotinib; first compound 0.7906 µM),relative viability (Mirin + Crizotinib; first compound 2.5 µM),relative viability (Mirin + Crizotinib; first compound 7.906 µM),relative viability (Mirin + Crizotinib; first compound 25 µM),relative viability (Mirin + Vorinostat; first compound 0.25 µM),relative viability (Mirin + Vorinostat; first compound 0.7906 µM),relative viability (Mirin + Vorinostat; first compound 2.5 µM),relative viability (Mirin + Vorinostat; first compound 7.906 µM),relative viability (Mirin + Vorinostat; first compound 25 µM),relative viability ([2]; first compound 1.265 µM)
EMC-BAC-2,0.231,0.283,0.249,0.165,0.155,0.37,0.37,0.386,0.375,0.727,0.818,0.774,0.697,0.616,0.426,0.402,0.493,0.35,0.6,–
NCI-H1355,0.654,0.652,0.582,0.563,0.569,0.433,0.406,0.373,0.391,1.07,1.18,1.02,1.04,1.1,0.608,0.696,0.683,0.605,0.699,0.327
NCI-H2347,0.634,0.637,0.674,0.45,0.395,0.471,0.446,0.374,0.406,0.759,0.68,0.693,0.502,0.631,0.569,0.645,0.641,0.494,0.66,0.262
NCI-H1651,0.556,0.733,0.718,0.528,0.334,0.805,0.795,0.641,0.788,0.827,0.875,0.849,0.877,0.821,0.224,0.554,0.478,0.567,0.591,0.757
NCI-H1975,0.661,0.549,0.491,0.121,0.0969,0.766,0.68,0.676,0.64,0.974,1.02,0.93,0.954,0.943,0.696,0.777,0.718,0.703,0.733,0.579
COR-L23,0.185,0.165,0.154,0.12,0.135,0.777,0.783,0.605,0.7,0.69,0.828,0.75,0.556,0.617,0.453,0.585,0.488,0.327,0.31,0.635
HCC-44,0.841,0.146,0.373,0.225,0.188,0.479,0.446,0.532,0.406,0.817,0.85,0.783,0.795,1.07,1.12,1.2,1.05,1.15,1.35,0.416
LOU-NH91,0.631,0.518,0.45,0.353,0.369,0.613,0.709,0.711,0.75,0.759,–,0.718,0.77,0.902,0.908,0.902,1,0.843,1.16,0.677
